Reference: publication PMC10382584, “Macrocyclization of linear molecules by deep learning to facilitate macrocyclic drug candidates discovery” (Nature Communications, 2023)

How the values were obtained:
Assay in all cases: biochemical
Design in all cases: DiscoveRx KINOMEscan competition binding, percent of DMSO control signal at 100 nM
Settings in all cases: read-out: Fig. 4a / Percent Control / Compound 1; percent of DMSO control, competition binding
[1] = biological target: T1, ABL1(M351T)-phosphorylated (Homo sapiens, UniProt P00519, M351T)
T1 construct: phosphorylated

[2] = biological target: AURKB (Homo sapiens, UniProt Q96GD4)
AURKB, sequence (Q96GD4 whole entry): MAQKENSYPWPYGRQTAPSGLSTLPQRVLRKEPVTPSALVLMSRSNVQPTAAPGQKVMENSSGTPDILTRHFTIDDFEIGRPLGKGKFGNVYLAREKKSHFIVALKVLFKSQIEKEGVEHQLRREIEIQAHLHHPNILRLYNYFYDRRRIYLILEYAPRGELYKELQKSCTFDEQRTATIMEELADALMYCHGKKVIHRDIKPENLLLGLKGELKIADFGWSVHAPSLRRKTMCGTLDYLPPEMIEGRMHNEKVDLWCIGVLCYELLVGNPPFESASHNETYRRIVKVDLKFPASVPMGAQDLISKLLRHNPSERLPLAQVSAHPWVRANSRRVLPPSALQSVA

[3] = biological target: T2, CDK4-cyclinD1 (Homo sapiens, UniProt P11802)
T2 construct: cyclinD1

[4] = biological target: CLK4 (Homo sapiens, UniProt Q9HAZ1)
[5] = biological target: DAPK1 (Homo sapiens, UniProt P53355)
[6] = biological target: EGFR(L747-S752del, P753S) (Homo sapiens, UniProt P00533, DEL747-752/P753S)
EGFR(L747-S752del, P753S), sequence (P00533 with tags, fused parts or gaps DEL747-752/P753S): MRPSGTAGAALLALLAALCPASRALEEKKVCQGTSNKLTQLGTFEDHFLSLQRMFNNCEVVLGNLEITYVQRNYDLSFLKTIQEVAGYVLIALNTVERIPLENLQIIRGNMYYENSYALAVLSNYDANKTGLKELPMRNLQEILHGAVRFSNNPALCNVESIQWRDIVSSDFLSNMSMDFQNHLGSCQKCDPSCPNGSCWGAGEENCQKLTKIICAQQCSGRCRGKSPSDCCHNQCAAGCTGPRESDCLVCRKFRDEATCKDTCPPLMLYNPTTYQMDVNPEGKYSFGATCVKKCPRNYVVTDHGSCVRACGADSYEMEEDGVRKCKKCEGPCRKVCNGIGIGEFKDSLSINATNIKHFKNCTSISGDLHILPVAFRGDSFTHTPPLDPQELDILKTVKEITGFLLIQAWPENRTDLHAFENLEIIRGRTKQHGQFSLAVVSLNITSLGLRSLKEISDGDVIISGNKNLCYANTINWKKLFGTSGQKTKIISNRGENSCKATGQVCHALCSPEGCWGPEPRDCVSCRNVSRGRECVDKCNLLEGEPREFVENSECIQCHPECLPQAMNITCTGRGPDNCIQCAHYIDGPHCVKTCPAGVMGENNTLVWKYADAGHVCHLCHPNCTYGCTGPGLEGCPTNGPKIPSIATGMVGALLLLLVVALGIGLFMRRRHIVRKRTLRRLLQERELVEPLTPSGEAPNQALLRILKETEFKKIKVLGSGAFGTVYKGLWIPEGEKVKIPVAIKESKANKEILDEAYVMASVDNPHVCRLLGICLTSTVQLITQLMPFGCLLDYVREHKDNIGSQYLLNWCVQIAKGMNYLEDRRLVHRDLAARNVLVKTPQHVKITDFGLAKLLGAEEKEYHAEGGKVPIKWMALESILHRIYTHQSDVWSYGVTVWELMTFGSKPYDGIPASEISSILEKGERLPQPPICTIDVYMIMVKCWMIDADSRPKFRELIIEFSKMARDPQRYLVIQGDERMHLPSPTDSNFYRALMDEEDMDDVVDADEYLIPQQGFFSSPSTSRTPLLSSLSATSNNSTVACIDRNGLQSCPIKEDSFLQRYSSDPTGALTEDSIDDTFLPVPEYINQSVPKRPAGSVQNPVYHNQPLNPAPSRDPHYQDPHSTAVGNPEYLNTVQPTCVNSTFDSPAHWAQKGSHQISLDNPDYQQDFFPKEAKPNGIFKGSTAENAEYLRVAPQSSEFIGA

[7] = biological target: EPHB2 (Homo sapiens, UniProt P29323)
[8] = biological target: ERBB4 (Homo sapiens, UniProt Q15303)
ERBB4, sequence (Q15303 whole entry): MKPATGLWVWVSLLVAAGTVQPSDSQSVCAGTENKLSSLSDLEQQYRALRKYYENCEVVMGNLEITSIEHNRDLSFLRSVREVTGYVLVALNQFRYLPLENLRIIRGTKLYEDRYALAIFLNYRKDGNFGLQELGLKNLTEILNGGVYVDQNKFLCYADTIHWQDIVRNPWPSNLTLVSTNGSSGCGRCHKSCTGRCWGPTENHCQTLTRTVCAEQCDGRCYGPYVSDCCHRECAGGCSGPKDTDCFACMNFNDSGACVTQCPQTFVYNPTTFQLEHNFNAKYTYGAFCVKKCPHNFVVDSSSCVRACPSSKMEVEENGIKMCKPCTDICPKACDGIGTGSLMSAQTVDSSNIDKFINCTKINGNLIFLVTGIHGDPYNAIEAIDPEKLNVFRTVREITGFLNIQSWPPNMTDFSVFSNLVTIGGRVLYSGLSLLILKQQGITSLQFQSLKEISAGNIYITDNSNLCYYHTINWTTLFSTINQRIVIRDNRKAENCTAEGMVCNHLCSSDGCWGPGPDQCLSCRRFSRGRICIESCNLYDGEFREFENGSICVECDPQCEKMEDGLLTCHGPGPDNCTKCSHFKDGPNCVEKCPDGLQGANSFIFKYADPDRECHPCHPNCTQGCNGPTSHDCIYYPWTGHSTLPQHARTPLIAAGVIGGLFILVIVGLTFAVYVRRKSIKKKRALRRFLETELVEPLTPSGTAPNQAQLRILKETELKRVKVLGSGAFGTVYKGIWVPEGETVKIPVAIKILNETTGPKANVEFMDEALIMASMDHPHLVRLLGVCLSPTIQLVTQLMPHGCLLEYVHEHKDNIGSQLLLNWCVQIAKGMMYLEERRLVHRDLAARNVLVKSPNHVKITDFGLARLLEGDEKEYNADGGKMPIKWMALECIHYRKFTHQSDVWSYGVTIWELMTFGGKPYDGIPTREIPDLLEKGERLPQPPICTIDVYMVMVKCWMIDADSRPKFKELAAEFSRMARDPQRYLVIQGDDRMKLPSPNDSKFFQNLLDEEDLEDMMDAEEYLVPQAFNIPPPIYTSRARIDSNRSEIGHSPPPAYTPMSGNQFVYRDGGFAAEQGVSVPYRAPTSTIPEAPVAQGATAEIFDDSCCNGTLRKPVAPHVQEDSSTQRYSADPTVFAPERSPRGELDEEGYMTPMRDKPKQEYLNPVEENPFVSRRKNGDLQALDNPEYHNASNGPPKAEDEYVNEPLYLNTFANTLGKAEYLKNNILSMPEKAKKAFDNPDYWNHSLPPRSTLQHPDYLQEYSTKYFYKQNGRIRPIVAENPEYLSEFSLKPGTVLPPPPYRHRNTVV

[9] = biological target: FLT3(N841I) (Homo sapiens, UniProt P36888, N841I)
[10] = biological target: FLT4 (Homo sapiens, UniProt P35916)
[11] = biological target: HIPK2 (Homo sapiens, UniProt Q9H2X6)
[12] = biological target: IRAK3 (Homo sapiens, UniProt Q9Y616)
[13] = biological target: IRAK4 (Homo sapiens, UniProt Q9NWZ3)
IRAK4, sequence (Q9NWZ3 whole entry): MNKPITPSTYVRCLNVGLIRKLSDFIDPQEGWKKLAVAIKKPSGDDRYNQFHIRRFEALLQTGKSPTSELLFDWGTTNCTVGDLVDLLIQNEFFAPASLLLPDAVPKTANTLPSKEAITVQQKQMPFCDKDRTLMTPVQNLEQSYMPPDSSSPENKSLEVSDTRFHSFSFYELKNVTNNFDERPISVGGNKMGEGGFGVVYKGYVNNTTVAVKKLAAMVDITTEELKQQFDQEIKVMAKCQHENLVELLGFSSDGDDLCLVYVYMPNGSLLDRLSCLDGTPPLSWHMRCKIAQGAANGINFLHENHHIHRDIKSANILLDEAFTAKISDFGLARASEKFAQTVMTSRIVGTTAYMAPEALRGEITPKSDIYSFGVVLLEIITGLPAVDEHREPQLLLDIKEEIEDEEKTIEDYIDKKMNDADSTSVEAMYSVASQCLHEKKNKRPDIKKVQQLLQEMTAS

[14] = biological target: T3, JAK1(JH2domain-pseudokinase) (Homo sapiens, UniProt P23458)
T3 construct: JH2domain-pseudokinase
T3 sequence (P23458 whole entry): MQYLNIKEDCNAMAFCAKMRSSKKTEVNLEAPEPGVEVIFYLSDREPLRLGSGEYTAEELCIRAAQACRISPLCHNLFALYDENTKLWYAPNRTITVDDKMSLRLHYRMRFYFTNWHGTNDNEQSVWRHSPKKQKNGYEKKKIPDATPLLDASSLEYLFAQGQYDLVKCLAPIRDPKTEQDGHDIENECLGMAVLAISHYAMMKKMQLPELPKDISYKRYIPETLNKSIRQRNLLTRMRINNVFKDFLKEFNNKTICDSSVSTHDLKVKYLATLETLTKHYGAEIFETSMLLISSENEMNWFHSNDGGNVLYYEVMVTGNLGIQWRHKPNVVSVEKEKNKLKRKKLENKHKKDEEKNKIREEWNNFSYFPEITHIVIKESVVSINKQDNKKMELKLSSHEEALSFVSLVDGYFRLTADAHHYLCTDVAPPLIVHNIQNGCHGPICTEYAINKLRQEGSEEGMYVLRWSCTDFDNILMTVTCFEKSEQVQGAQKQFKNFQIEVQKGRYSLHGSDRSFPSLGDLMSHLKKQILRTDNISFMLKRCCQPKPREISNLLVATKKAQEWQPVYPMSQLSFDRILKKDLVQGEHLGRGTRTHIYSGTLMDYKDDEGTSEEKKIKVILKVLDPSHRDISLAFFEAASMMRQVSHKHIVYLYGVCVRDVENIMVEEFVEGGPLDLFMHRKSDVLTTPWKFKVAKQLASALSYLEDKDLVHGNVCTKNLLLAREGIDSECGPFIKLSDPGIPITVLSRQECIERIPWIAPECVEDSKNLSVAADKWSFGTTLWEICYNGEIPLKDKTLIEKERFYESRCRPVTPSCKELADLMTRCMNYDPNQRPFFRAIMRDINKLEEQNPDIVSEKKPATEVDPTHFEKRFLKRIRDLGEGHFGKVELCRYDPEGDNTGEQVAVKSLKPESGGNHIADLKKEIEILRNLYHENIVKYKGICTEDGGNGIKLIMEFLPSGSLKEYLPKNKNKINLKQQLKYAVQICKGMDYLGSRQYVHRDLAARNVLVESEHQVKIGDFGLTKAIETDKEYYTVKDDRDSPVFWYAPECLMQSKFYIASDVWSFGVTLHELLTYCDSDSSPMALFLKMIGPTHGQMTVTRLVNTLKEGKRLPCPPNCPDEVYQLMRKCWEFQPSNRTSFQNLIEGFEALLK

[15] = biological target: T4, JNK3 (Homo sapiens, UniProt P53779)
T4 construct: gene MAPK10
T4 sequence (P53779 whole entry): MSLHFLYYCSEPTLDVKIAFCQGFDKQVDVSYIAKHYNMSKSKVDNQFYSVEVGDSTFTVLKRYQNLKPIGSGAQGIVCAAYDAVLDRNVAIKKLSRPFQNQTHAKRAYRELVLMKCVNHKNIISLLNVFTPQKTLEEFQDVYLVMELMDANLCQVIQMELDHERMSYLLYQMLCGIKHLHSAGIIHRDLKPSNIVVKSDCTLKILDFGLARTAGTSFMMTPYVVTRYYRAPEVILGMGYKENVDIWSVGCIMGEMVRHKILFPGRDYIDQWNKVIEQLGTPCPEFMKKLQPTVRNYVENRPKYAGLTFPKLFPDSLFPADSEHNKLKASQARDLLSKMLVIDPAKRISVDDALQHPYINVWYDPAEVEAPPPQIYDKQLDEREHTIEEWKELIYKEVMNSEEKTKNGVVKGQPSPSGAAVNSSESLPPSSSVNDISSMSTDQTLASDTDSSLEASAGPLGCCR

[16] = biological target: LYN (Homo sapiens, UniProt P07948)
[17] = biological target: MAP4K3 (Homo sapiens, UniProt Q8IVH8)
[18] = biological target: MELK (Homo sapiens, UniProt Q14680)
[19] = biological target: T5, NDR1 (Homo sapiens, UniProt Q15208)
T5 construct: gene STK38

[20] = biological target: PDGFRA (Homo sapiens, UniProt P16234)
[21] = biological target: T6, SNARK (Homo sapiens, UniProt Q9H093)
T6 construct: gene NUAK2

[22] = biological target: SYK (Homo sapiens, UniProt P43405)
[23] = biological target: TAOK1 (Homo sapiens, UniProt Q7L7X3)
[24] = biological target: TAOK2 (Homo sapiens, UniProt Q9UL54)
[25] = biological target: T7, TYK2(JH2domain-pseudokinase) (Homo sapiens, UniProt P29597)
T7 construct: JH2domain-pseudokinase
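Note: KINOMEscan kinase panel binding assay, signal normalized between DMSO as 100% and a positive control compound as 0%.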

## Cc1cnc2nc1Nc1cccc(c1)COCc1cc(ccc1OCCN1CCCC1)N2 [Compound 1]
[1]
  remaining binding at 0.1 µM: 63%
[2]
  remaining binding at 0.1 µM: 82%
[3]
  remaining binding at 0.1 µM: 76%
[4]
  remaining binding at 0.1 µM: 94%
[5]
  remaining binding at 0.1 µM: 94%
[6]
  remaining binding at 0.1 µM: 80%
[7]
  remaining binding at 0.1 µM: 88%
[8]
  remaining binding at 0.1 µM: 82%
[9]
  remaining binding at 0.1 µM: 3.5%
[10]
  remaining binding at 0.1 µM: 85%
[11]
  remaining binding at 0.1 µM: 100%
[12]
  remaining binding at 0.1 µM: 53%
[13]
  remaining binding at 0.1 µM: 72%
[14]
  remaining binding at 0.1 µM: 36%
[15]
  remaining binding at 0.1 µM: 43%
[16]
  remaining binding at 0.1 µM: 92%
[17]
  remaining binding at 0.1 µM: 83%
[18]
  remaining binding at 0.1 µM: 100%
[19]
  remaining binding at 0.1 µM: 87%
[20]
  remaining binding at 0.1 µM: 73%
[21]
  remaining binding at 0.1 µM: 36%
[22]
  remaining binding at 0.1 µM: 99%
[23]
  remaining binding at 0.1 µM: 72%
[24]
  remaining binding at 0.1 µM: 63%
[25]
  remaining binding at 0.1 µM: 64%
